Values quoted from earlier work as cited in PMC2923200, “Identification of a Cardiac Specific Protein Transduction Domain by In Vivo Biopanning Using a M13 Phage Peptide Display Library in Mice” (PLoS ONE, 2010).

Conditions: in vitro phage display screening by other investigators
Excerpt: However, it is unclear how the ability of CTP to interact with these cellular components in vitro facilitates transduction of cardiac specific tissue in vivo. We currently are examining whether the transduction process is energy independent as well as whether it involves endocytosis. Also, the s ...

- affinity for binding to apatite-based, bone-like minerals: high affinity
- affinity for binding to two specific sulfated carbohydrates: high affinity
Sequence: APWHLSSQYSRT [CTP]
